In US20240352046A1, “ECTONUCLEOTIDE PYROPHOSPHATASE-PHOSPHODIESTERASE-1 (ENPP1) INHIBITORS AND USES THEREOF” (1cBio, Inc., priority 2020, published 2024):

These compounds were tested against ENPP-1 (Ectonucleotide Pyrophosphatase/Phosphodiesterase 1) (Homo sapiens (Human), UniProt P22413) (assay: ENPP1 inhibition assay (AMP Glo, cGAMP substrate)). Conditions: cGAMP 20 μM substrate, ENPP1 1 nM.
Assay type: biochemical
Protocol: IC50 values of compounds against ENPP-1 (Ectonucleotide Pyrophosphatase/Phosphodiesterase 1) were determined at Integral BioSciences (India) using AMP Glo (Promega, Cat #V5011). Assay was performed in a 30 μL final volume in a white 96-well Half Area plate (Costar,Cat #3693). Dose response curve for the compounds were prepared in duplicates with starting conc. at 5 μM and a three-fold titration was performed. The reaction buffer consisted of 50 mM Tris (pH 8.0), 0.5 mM CaCl2), 1 μM ZnCl2, 250 mM NaCl and 0.1 mg/ml BSA. To the compound dilution, 15 μL of ENPP1 enzyme (R&D Systems; Cat #6136-EN-010) was added to each well (final conc. 1 nM) and the mix was pre-incubated for 15 min at RT. An equal volume (15 μL) containing cGAMP (Sigma, Cat #SML-1229) (final conc. 20 μM) was added to initiate the enzyme reaction and the reaction was incubated for 30 min at RT. The reaction was then stopped by heating at 90° C. for 3 minutes. 10 μl of reaction was then transferred to 384 well white, medium binding plates (Grenier, Cat #781075) to which 10 μl of AMP-Glo Reagent 1 was added and mixed well and incubated for 1 hour at 25° C. Following 60 min incubation, 20 μL of detection mixture was added to the enzyme reaction bringing the final volume to 40 μL. The reaction was further incubated for 60 min at RT after which the plates were read using BioTek Plate reader.
Analysis was done using the standard curve by non-linear regression, variable slope inhibitor curve fits (Graph-Pad Prism) and IC50's of compounds were determined wherever possible.

ENPP-1 (Ectonucleotide Pyrophosphatase/Phosphodiesterase 1), sequence (P22413 whole entry): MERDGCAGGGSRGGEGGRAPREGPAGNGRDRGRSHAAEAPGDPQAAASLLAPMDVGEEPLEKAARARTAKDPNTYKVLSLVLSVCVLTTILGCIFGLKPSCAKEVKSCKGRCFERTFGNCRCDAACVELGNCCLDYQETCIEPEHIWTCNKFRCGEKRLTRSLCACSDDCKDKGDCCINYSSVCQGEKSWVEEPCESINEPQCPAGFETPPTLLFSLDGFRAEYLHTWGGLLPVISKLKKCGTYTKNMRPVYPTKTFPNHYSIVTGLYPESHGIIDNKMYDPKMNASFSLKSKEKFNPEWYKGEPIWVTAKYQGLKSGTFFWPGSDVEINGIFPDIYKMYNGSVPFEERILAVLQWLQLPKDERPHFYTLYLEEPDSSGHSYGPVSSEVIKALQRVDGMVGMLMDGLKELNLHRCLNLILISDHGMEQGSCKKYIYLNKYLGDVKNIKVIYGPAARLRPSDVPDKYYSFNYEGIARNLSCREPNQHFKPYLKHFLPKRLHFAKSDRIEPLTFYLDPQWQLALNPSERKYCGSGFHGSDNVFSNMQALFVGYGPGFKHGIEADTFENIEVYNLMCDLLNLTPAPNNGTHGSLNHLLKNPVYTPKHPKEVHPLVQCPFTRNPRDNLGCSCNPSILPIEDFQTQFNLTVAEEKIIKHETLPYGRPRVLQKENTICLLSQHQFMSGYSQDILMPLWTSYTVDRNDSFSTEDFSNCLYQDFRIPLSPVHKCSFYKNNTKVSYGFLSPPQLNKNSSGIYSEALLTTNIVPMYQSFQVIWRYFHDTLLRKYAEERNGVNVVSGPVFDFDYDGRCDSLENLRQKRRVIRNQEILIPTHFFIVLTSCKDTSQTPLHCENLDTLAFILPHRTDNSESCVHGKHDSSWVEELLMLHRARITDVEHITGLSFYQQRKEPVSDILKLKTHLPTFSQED

| IC50 [µM] | SMILES |
| --- | --- |
| 0.01 | Cc1cc(Cl)n2ncnc(N3CC4(CC(N(CC(F)F)S(N)(=O)=O)C4)C3)c12 [Compound 1.99, N-(2-(7-chloro-5-methylpyrrolo[2,1-f][1,2,4]triazin-4-yl)-2-azaspiro[3.3]heptan-6-yl)-N-(2,2-difluoroethyl)sulfamamide] |
| > 3 | Cc1cc(Cl)n2nc(C(F)F)nc(N3CC4(CC(N(C)S(N)(=O)=O)C4)C3)c12 [Compound 1.90] |
| 0.616 | Cc1cc(F)n2ncnc(N3CC4(CC(N(C)S(N)(=O)=O)C4)C3)c12 [Compound 1.80, N-(2-(7-fluoro-5-methylpyrrolo[1,2-f][1,2,4]triazin-4-yl)-2-azaspiro[3.3]heptan-6-yl)-N-methylsulfamamide] |
| 0.023 | Cc1cc(Cl)n2ncnc(N3CC4(CC(N(C[C@H](O)C(F)(F)F)S(N)(=O)=O)C4)C3)c12 (stereo in doubt) [Compound 1.126, N-(2-(7-chloro-5-methylpyrrolo[2,1-f][1,2,4]triazin-4-yl)-2-azaspiro[3.3]heptan-6-yl)-N-(3,3,3-trifluoro-2-hydroxypropyl)sulfamide] |
| > 3 | CN(C1CC2(C1)CN(c1nc(Cl)nc3c1cnn3C)C2)S(N)(=O)=O [Compound 1.96, N-(2-(6-chloro-1-methyl-1H-pyrazolo[3,4-d]pyrimidin-4-yl)-2-azaspiro[3.3]heptan-6-yl)-N-methylsulfamamide] |
| 0.169 | Cc1cc(Cl)n2ncnc(N3CC4(CC(N(CC(C)(C)C)S(N)(=O)=O)C4)C3)c12 [Compound 1.113, N-(2-(7-chloro-5-methylpyrrolo[2,1-f][1,2,4]triazin-4-yl)-2-azaspiro[3.3]heptan-6-yl)-N-neopentylsulfamamide] |
| 0.189 | Cc1cc(Cl)n2ncnc(N3CC4(CC(N(Cc5ccc(C(F)(F)F)cc5)S(N)(=O)=O)C4)C3)c12 [Compound 1.109, N-(2-(7-chloro-5-methylpyrrolo[2,1-f][1,2,4]triazin-4-yl)-2-azaspiro[3.3]heptan-6-yl)-N-(4-(trifluoromethyl)benzyl)sulfamamide] |
| 0.018 | Cc1cc(Cl)n2ncnc(N3CC4(CC(N(CC(O)C(F)(F)F)S(N)(=O)=O)C4)C3)c12 (stereo not shown) [Compound 1.120, N-(2-(7-chloro-5-methylpyrrolo[2,1-f][1,2,4]triazin-4-yl)-2-azaspiro[3.3]heptan-6-yl)-N-(3,3,3-trifluoro-2-hydroxypropyl)sulfamamide] |
| 0.047 | Cc1cc(Cl)n2ncnc(N3CC4(CC(N(CC(F)(F)F)S(N)(=O)=O)C4)C3)c12 [Compound 1.129, N-(2-(7-chloro-5-methylpyrrolo[1,2-f][1,2,4]triazin-4-yl)-2-azaspiro[3.3]heptan-6-yl)-N-(2,2,2-trifluoroethyl)sulfamamide] |
| 0.239 | Cc1cc(Cl)n2ncnc(N3CC4(CC(N(CC5CCCCC5)S(N)(=O)=O)C4)C3)c12 [Compound 1.117, N-(2-(7-chloro-5-methylpyrrolo[2,1-f][1,2,4]triazin-4-yl)-2-azaspiro[3.3]heptan-6-yl)-N-(cyclohexylmethyl)sulfamide] |
| 0.055 | CCN(C1CC2(C1)CN(c1ncnn3c(Cl)cc(C)c13)C2)S(N)(=O)=O [Compound 1.98, N-(2-(7-chloro-5-methylpyrrolo[2,1-f][1,2,4]triazin-4-yl)-2-azaspiro[3.3]heptan-6-yl)-N-ethylsulfamamide] |
| > 2.39 | Cc1cc(Cl)n2nc(C3CC3)nc(N3CC4(CC(N(C)S(N)(=O)=O)C4)C3)c12 [Compound 1.85] |
| > 3 | Cc1cc(Cl)n2ncnc(N3CC(CCN(C(C)C)S(N)(=O)=O)C3)c12 [Compound 1.83, N-(2-(1-(7-chloro-5-methylpyrrolo[2,1-f][1,2,4]triazin-4-yl)azetidin-3-yl)ethyl)-N-isopropylsulfamamide] |
| 0.218 | Cc1cc(Cl)n2ncnc(N3CC4(CC(N(CC5CCC(C(F)(F)F)CC5)S(N)(=O)=O)C4)C3)c12 (stereo not shown) [Compound 1.119, N-(2-(7-chloro-5-methylpyrrolo[2,1-f][1,2,4]triazin-4-yl)-2-azaspiro[3.3]heptan-6-yl)-N-((4-(trifluoromethyl)cyclohexyl)methyl)sulfamamide] |
| > 3 | Cc1cc(Cl)n2ncnc(N3CC(CCN(C4CCC4)S(N)(=O)=O)C3)c12 [Compound 1.94, N-(2-(1-(7-chloro-5-methylpyrrolo[2,1-f][1,2,4]triazin-4-yl)azetidin-3-yl)ethyl)-N-cyclobutylsulfamamide] |
| 0.395 | Cc1cc(Cl)n2ncnc(N3CC4(CC(N(C5CCCC5)S(N)(=O)=O)C4)C3)c12 [Compound 1.110, N-(2-(7-chloro-5-methylpyrrolo[2,1-f][1,2,4]triazin-4-yl)-2-azaspiro[3.3]heptan-6-yl)-N-cyclopentylsulfamamide] |
| > 3 | Cc1cc(C#N)n2ncnc(N3CC4(CC(N(C)S(N)(=O)=O)C4)C3)c12 [Compound 1.91, N-(2-(6-cyano-5-methylpyrrolo[1,2-f][1,2,4]triazin-4-yl)-2-azaspiro[3.3]heptan-6-yl)-N-methylsulfamamide] |

Continued, compound first:

| SMILES | IC50 [µM] |
| --- | --- |
| COc1cc2ncnc(N3CC4(CC(CB(O)O)C4)C3)c2cc1OC [Compound 1.53, (2-(6,7-dimethoxyquinazolin-4-yl)-2-azaspiro[3.3]heptan-6-yl)methylboronic acid] | 0.122 |
| Cc1c(Cl)cn2ncnc(N3CC4(CC(N(C)S(N)(=O)=O)C4)C3)c12 [Compound 1.75, N-[2-(6-chloro-5-methylpyrrolo[2,1-f][1,2,4]triazin-4-yl)-2-azaspiro[3.3]hept-6-yl]-N-methylsulfuric diamide] | 0.391 |
| COc1ccc2c(N3CC(CCNS(N)(=O)=O)C3)nc(-c3ccccc3)nc2c1 [Compound 1.34, 4-(3-(2-sulfamoylaminoethyl)azetidine-1-yl)-7-methoxy-2-phenylquinazoline] | > 3 |
| COc1cc2ncnc(N3CC(CCNS(N)(=O)=O)(c4ccccc4)C3)c2cc1OC [Compound 1.58, 4-3-(2-(sulfamoylamino)ethyl)-3-phenylazetidin-1-yl-6,7-dimethoxyquinazoline] | 0.66 |
| Cc1cc(Cl)n2nc(C(C)C)nc(N3CC4(CC(N(C)S(N)(=O)=O)C4)C3)c12 [Compound 1.101, N-(2-(7-chloro-2-isopropyl-5-methylpyrrolo[1,2-f][1,2,4]triazin-4-yl)-2-azaspiro[3.3]heptan-6-yl)-N-methylsulfamide] | > 3 |
| COc1cc2ncnc(N3CC(CCC(=O)O)C3)c2cc1OC [Compound 1.5, 3-(1-(6,7-dimethoxyquinazolin-4-yl)azetidin-3-yl)propanoic acid] | 0.16 |
| Cc1ccn2ncnc(N3CC(CCB(O)O)C3)c12 [Compound 1.59, 2-(1-(5-methylpyrrolo[1,2-f][1,2,4]triazin-4-yl)azetidin-3-yl)ethylboronic acid] | > 3 |
| COc1cc2nc(-c3ccc(F)cc3)nc(N3CC(CCNS(N)(=O)=O)C3)c2cc1OC [Compound 1.33, 4-(3-(2-sulfamoylaminoethyl)azetidine-1-yl)-2-(4-fluorophenyl)-6,7-dimethoxyquinazoline] | 0.248 |
| Cn1ccc2ncnc(N3CC(CCNS(N)(=O)=O)C3)c21 [Compound 1.14, 4-(3-(2-sulfamoylaminoethyl)azetidine-1-yl)-5-methyl-5H-pyrrolo[3,2-d]pyrimidine] | 0.12 |
| COc1cc2[nH]c(=O)nc(N3CC(CCNS(N)(=O)=O)C3)c2cc1OC [Compound 1.2, (2-(1-(6,7-dimethoxy-2-oxo-1,2-dihydroquinazolin-4-yl)azetidin-3-yl)ethyl)amiosulfonamide] | > 5 |
| COc1ccc2c(N3CC(CCCS(N)(=O)=O)C3)ncnc2c1 [Compound 1.56, 3-(1-(7-methoxyquinazolin-4-yl)azetidin-3-yl)propane-1-sulfonamide] | 0.085 |
| COc1cc2nncc(N3CC4(CC(N(C)S(N)(=O)=O)C4)C3)c2cc1OC [Compound 1.68, 4(6-N-methylsulfamoylamino)-2-azaspiro[3.3]heptan-2-yl-6,7-dimethoxycinnoline] | 0.003 |
| COc1cc2nc(C3CC3)nc(N3CC(CCNS(N)(=O)=O)C3)c2cc1OC [Compound 1.25, 4-(3-(2-sulfamoylaminoethyl)azetidine-1-yl)-2-cyclopropyl-6,7-dimethoxyquinazoline] | 0.66 |
| COc1cc2ncc(C#N)c(N3CC4(CC(NS(N)(=O)=O)C4)C3)c2cc1OC [Compound 1.24, 4-(6-sulfamoylamino-2-azaspiro[3.3]heptan-2-yl)-6,7-dimethoxyquinoline-3-carbonitrile] | 0.002 |
| COc1cc2ncnc(N3CC(CCCS(=O)(=O)O)C3)c2cc1OC [Compound 1.65, 3-(1-(6,7-dimethoxyquinazolin-4-yl)azetidin-3-yl)propane-1-sulfonic acid] | 0.078 |
| Cn1cnc2c(F)c3ncnc(N4CC(CCNS(N)(=O)=O)C4)c3cc21 [Compound 1.32, 8-(3-(2-sulfamoylaminoethyl)azetidine-1-yl)-4-fluoro-1-methyl-1H-imidazo[4,5-g]quinazoline] | > 3 |
| COc1ccc2c(N3CC(CCNS(N)(=O)=O)C3)c(C#N)cnc2c1 [Compound 1.13, 4-(3-(2-sulfamoylaminoethyl)azetidine-1-yl)-7-methoxyquinoline-3-carbonitrile] | 0.011 |
